{"source": "patent US20230321124A1", "about": "“ROR gamma t Inhibitors and Topical Uses Thereof” (DERMIRA, INC., priority 2020, published 2023)", "test_system": "IL-17A protein", "experiment": "skin Resident Immune Cell Assay (sRICA), Th17 model, human skin biopsies", "format": "cell-based", "settings": "Example 2, FIG. 1; 10 ul topical, overnight; media harvested 48 hours after activation; N=6", "method": "A skin Resident Immune Cell Assay (sRICA) was used to test Compounds 1, 2 and 3 in Formulations as identified in Example 1 for reduction of IL-17A protein upregulation in the Th17 sRICA model. In this model, human surgical skin waste was cultured in a transwell system, with the dermis in contact with cell culture media and the stratum corneum exposed to air. To perform the assay, each human skin sample was defatted and dermatomed to 750 μm. Next, 8 mm punch biopsies were obtained and placed in a membrane transwell. The biopsies were prepared with a barrier ring to contain the formulation and prevent leakage of the formulation. […]\n10 ul of the test solvent system was applied to topically prepared sRICA samples and allowed to penetrate the skin overnight. […] An unpaired, two-tailed students T-test was used to determined statistical significance between Th17 treated skin and treatment groups. The performance of the 3 RORγt inhibitors in Formulations representative of creams (Formulations 3-7), aqueous gels (Formulation 8), non-aqueous gels (Formulations 9-10), and ointments (Formulation 11) were evaluated.\nAll formulations of containing Compound 1 or Compound 2 were created at 80% saturation, except for all non-aqueous gels (NAG) in which saturation has not yet been determined (>12%) and were arbitrarily formulated at 1% or 5% (see Formulation 10 (1%) and Formulation 10 (5%) in Tables 6 and 7). […]"}
{"smiles": "C[C@H]1C[C@H]2[C@@H]3CCC4=CC(=O)C=C[C@]4(C)[C@@]3(F)[C@@H](O)C[C@]2(C)[C@@]1(O)C(=O)CCl", "note": "[Clobetasol]", "values": [{"measurement": "Th17-cocktail induced IL17A protein in culture media", "value": "complete suppression"}]}
